From article PMC6234229, “The role of loops B and C in determining the potentiation of GABAA receptors by midazolam” (Pharmacology Research & Perspectives, 2018)
Values joined by “and” are separate entries in the source; they are usually repeats but may differ in a detail not shown here. Equal values may be shown once. Read-outs that look alike come from different tables or passages of the source.

Key:
[1] = cited from earlier work
[2] = molecular target: T1, α4(I204S)β2γ2 GABAA receptor (Homo sapiens, UniProt P18507+P47870+P48169, I239S); assay: GABA concentration-response assay, whole-cell patch clamp, HEK293T; type: cell-based; conditions: GABA Hill fit
T1 construct: expressed in transfected cells; host or cells: HEK293T
T1 sequence (P48169 36-554 I239S): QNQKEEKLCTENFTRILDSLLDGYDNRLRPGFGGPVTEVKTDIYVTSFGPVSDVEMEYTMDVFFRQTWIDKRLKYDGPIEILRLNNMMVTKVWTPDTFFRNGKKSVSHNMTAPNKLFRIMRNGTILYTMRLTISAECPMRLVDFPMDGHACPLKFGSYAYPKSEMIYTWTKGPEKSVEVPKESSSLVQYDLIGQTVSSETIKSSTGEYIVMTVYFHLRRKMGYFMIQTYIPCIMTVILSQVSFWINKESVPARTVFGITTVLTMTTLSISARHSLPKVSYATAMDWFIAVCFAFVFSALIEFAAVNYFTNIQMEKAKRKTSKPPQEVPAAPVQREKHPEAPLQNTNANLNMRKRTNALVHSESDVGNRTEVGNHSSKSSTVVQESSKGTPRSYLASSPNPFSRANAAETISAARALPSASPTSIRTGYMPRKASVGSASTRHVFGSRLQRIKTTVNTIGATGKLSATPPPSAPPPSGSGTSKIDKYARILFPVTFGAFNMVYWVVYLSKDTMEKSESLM
T1 sequence (P47870 26-474 isoform P47870-1 limits assumed, stated change not applied): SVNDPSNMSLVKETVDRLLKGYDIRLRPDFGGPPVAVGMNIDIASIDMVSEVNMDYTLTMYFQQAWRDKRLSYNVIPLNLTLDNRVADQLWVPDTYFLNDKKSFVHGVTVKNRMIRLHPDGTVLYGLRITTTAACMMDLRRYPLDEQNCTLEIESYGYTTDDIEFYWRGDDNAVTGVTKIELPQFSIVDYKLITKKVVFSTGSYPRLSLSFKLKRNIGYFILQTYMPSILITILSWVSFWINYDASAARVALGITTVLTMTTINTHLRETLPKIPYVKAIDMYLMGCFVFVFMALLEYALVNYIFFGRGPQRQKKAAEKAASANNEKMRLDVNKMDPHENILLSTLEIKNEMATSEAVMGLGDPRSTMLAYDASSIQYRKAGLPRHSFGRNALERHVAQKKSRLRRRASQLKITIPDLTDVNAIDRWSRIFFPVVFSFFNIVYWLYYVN
T1 sequence (P18507 40-467 isoform P18507-1 limits assumed, stated change not applied): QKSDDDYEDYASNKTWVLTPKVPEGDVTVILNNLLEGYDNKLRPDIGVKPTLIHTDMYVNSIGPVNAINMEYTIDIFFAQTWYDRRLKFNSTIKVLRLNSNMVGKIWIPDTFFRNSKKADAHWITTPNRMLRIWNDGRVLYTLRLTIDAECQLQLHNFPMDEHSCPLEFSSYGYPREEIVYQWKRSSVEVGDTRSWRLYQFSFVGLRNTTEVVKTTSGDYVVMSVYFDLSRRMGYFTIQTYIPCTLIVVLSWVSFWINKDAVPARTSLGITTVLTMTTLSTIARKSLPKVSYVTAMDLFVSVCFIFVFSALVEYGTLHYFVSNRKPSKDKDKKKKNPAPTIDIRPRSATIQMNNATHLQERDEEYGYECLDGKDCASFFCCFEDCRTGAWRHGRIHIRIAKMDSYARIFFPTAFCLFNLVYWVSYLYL
Source text: (§1) Human (Homo sapiens) GABAA subunits (α1‐6, β2, γ2s) were subcloned into pcDNA3.1+ vectors with a cytomegalovirus (CMV) promoter. The hβ2 and hα3 sequences were humanized rat (Rattus norvegicus) cDNA with amino acid substitutions made to match the human protein sequence. The α1‐3, α5, β2, and γ2s subunits were a generous gift from Neil L. Harrison (Columbia University Medical Center, NY). The α4 subunit was obtained from GenScript (Piscataway, NJ), and the α6 subunit was a generous gift from Robert L. McDonald (Vanderbilt University, TN). All point mutations (listed in Figure 1C) were introduced using the QuikChange Lightening site‐directed mutagenesis kit (Agilent Technologies, Santa Clara, CA) according to the manufacturer's instructions and were confirmed by sequencing (Eurofins MWG Operon, Louisville, KY).
(§2) Human embryonic kidney cells containing the SV40 T‐antigen (HEK293T) were acquired from American Type Culture Collection (ATCC®, Manassas, VA), catalogue number, CRL3216. HEK293T cells were maintained at 37°C and 5% CO2 in Eagle Minimum Essential Medium (MEM) supplemented with 5% fetal bovine serum (Atlanta Biologicals Inc., Flowery Branch, GA), 40 μM L‐glutamine, 100 U/mL penicillin and 0.1 mM streptomycin. Cells were passaged regularly when they reached 70% confluency using trypsin. Cells were not passaged more than 22 times. New cells were revived from frozen stocks at passage 2‐4. Cells used for in vitro electrophysiology experiments were grown on poly‐D‐lysine‐coated glass coverslips (No.2, VWR, Radnor, PA) and transfected with X‐tremeGENE (Roche Diagnostics, Indianapolis, IN) with the desired receptor subunit cDNAs at a 1:1:1 ratio to express αxβ2γ2s receptors (2 μg total cDNA) and with 0.5 μg green fluorescent protein (GFP) as an expression marker. The γ2s incorporation into receptors was tested with zinc inhibition assays regularly.24 Patch clamp experiments were performed on cells at 24‐72 hours post‐transfection. All experiments were performed at 22°C. Experiments consisted of at least five cells recorded per day from at least two transfections across 3‐4 days to control for cell health and transfection efficiency. At least three cells expressing wild‐type receptors were recorded on days that mutant receptors were tested to provide a time‐matched expression control. All reagents were purchased from Sigma‐Aldrich (St. Louis, MO) unless otherwise stated.
(§3) Extracellular solution contained 161 mM NaCl, 3 mM KCl, 1 mM MgCl2, 1.5 mM CaCl2, 10 mM HEPES, and 6 mM D‐glucose, adjusted to pH 7.4 with NaOH (320‐330 mOsm). […] The perfusion system was controlled by protocols written in pClamp 9 (Molecular Devices, LLC., Sunnyvale, CA). Whole‐cell currents were recorded at ‐60 mV, filtered at 100 Hz and sampled at 200 Hz with a MultiClamp 700B amplifier (Molecular Devices, LLC) and DigiData 1322A (Molecular Devices, LLC) digitizer. […] Cells were recorded with the midazolam protocol no more than two times to avoid desensitization and incomplete washout or irreversible modulation.
(§4) Recordings were analyzed using MATLAB (Math Works, Inc., Natick, MA). […] The maximum peak current, EC50 and Hill coefficient were estimated for assays from each cell. When Hill parameters are estimated from whole‐cell recordings, the changes in the parameters across receptor conditions can be ascribed to the following changes in receptor physiology. Changes in maximum current can be due to changes in the single‐channel conductance or the rate of desensitization. Changes in cell surface receptor expression can cause minor changes in maximum current, but are unlikely to occur in the time course of our experimental protocol. […] More often minor changes in the Hill coefficient are attributed to the altered homogeneity in the receptor population expressed by the HEK293T cell. For example, a shallower Hill coefficient could be caused by a shift in the population of receptors from mostly αβγ receptors to a combination of both αβ and αβγ receptors.

[3] = molecular target: T2, α1(S206I)β2γ2 GABAA receptor (Homo sapiens, UniProt P14867+P18507+P47870, S233I); assay: as above; type: cell-based; conditions: GABA Hill fit
T2 construct: expressed in transfected cells; host or cells: HEK293T
T2 sequence (P14867 28-456 S233I): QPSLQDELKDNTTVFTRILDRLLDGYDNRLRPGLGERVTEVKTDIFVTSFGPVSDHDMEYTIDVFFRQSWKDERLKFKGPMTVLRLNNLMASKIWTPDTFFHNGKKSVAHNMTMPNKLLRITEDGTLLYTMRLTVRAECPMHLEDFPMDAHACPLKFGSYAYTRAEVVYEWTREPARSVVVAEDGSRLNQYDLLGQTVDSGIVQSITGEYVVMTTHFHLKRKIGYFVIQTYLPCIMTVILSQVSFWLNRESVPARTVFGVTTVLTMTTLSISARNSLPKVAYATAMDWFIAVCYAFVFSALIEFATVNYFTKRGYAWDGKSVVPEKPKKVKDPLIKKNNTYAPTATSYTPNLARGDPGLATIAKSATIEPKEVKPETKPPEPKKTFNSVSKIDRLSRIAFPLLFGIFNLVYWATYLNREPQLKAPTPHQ
T2 sequence (P47870 25-512 limits assumed, stated change not applied): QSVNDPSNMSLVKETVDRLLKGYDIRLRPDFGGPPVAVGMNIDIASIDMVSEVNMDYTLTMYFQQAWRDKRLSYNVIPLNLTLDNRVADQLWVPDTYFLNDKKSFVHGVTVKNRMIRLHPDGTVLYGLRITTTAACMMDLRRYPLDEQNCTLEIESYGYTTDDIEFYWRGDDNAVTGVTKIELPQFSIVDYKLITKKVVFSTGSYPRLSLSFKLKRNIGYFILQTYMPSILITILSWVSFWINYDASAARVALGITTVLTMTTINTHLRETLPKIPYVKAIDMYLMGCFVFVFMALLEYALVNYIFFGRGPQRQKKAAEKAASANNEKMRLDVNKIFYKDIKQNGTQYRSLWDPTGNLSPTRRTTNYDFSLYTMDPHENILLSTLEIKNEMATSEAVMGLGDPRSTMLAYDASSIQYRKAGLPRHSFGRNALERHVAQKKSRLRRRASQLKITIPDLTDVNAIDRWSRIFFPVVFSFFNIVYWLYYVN
T2 sequence (P18507 40-467 isoform P18507-1 limits assumed, stated change not applied): as the sequence (P18507 40-467 isoform P18507-1 limits assumed, stated change not applied) above
Source text: as §1, §2, §3, §4

[4] = molecular target: T3, α2(T162P)β2γ2 GABAA receptor (Homo sapiens, UniProt P18507+P47869+P47870, T190P); assay: as above; type: cell-based; conditions: GABA Hill fit
T3 construct: expressed in transfected cells; host or cells: HEK293T
Source text: as §1, §2, §3, §4

[5] = molecular target: T4, α1(H102R)β2γ2 GABAA receptor (Homo sapiens, UniProt P14867+P18507+P47870, H129R); assay: as above; type: cell-based; conditions: GABA Hill fit
T4 construct: expressed in transfected cells; host or cells: HEK293T
Source text: as §1, §2, §3, §4

α6β2γ2 GABAA receptor = molecular target: T5, α6β2γ2 GABAA receptor (Homo sapiens, UniProt P18507+P47870+Q16445); assay: as above; type: cell-based; conditions: GABA Hill fit
T5 construct: expressed in transfected cells; host or cells: HEK293T
T5 sequence (Q16445 20-453): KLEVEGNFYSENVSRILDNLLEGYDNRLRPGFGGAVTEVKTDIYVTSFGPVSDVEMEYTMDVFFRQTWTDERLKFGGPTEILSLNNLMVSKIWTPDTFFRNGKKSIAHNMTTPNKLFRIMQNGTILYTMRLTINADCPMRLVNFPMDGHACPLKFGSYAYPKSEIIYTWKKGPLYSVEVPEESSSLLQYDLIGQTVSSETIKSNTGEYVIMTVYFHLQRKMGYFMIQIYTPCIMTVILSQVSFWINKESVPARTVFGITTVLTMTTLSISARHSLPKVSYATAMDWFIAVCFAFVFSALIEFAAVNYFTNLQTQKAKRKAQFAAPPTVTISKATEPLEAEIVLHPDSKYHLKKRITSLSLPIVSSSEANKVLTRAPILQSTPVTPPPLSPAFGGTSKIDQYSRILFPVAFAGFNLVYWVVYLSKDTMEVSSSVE
T5 sequence (P47870 26-474 isoform P47870-1 limits assumed): as the sequence (P47870 26-474 isoform P47870-1 limits assumed, stated change not applied) above
T5 sequence (P18507 40-467 isoform P18507-1 limits assumed): as the sequence (P18507 40-467 isoform P18507-1 limits assumed, stated change not applied) above
Source text: as §1, §2, §3, §4

α5β2γ2 GABAA receptor = molecular target: T6, α5β2γ2 GABAA receptor (Homo sapiens, UniProt P18507+P31644+P47870); assay: as above; type: cell-based; conditions: GABA Hill fit
T6 construct: expressed in transfected cells; host or cells: HEK293T
Source text: as §1, §2, §3, §4

[6] = molecular target: T7, α3(S230I)β2γ2 GABAA receptor (Homo sapiens, UniProt P18507+P34903+P47870, S258I); assay: as above; type: cell-based; conditions: GABA Hill fit
T7 construct: expressed in transfected cells; host or cells: HEK293T
Source text: as §1, §2, §3, §4

α2β2γ2 GABAA receptor = molecular target: T8, α2β2γ2 GABAA receptor (Homo sapiens, UniProt P18507+P47869+P47870); assay: as above; type: cell-based; conditions: GABA Hill fit
T8 construct: expressed in transfected cells; host or cells: HEK293T
Source text: as §1, §2, §3, §4

[7] = molecular target: T9, α4(R100H)β2γ2 GABAA receptor (Homo sapiens, UniProt P18507+P47870+P48169, R135H); assay: as above; type: cell-based; conditions: GABA Hill fit
T9 construct: expressed in transfected cells; host or cells: HEK293T
Source text: as §1, §2, §3, §4

[8] = molecular target: T10, α5(H105R)β2γ2 GABAA receptor (Homo sapiens, UniProt P18507+P31644+P47870, H136R); assay: as above; type: cell-based; conditions: GABA Hill fit
T10 construct: expressed in transfected cells; host or cells: HEK293T
Source text: as §1, §2, §3, §4

[9] = molecular target: α6(R100H)β2γ2 GABAA receptor (Homo sapiens, UniProt P18507+P47870+Q16445, R119H); conditions: GABA Hill fit
Source text: as §1, with “All point mutations (listed in Figure 1C) were introduced using the QuikChange Lightening site‐directed mutagenesis kit (Agilent Technologies, Santa Clara, CA) according to the manufacturer's instructions and were confirmed by sequencing (Eurofins MWG Operon, Louisville, KY).” left out
(§5) Human embryonic kidney cells containing the SV40 T‐antigen (HEK293T) were acquired from American Type Culture Collection (ATCC®, Manassas, VA), catalogue number, CRL3216. […] Experiments consisted of at least five cells recorded per day from at least two transfections across 3‐4 days to control for cell health and transfection efficiency. At least three cells expressing wild‐type receptors were recorded on days that mutant receptors were tested to provide a time‐matched expression control. […]
(§6) Extracellular solution contained 161 mM NaCl, 3 mM KCl, 1 mM MgCl2, 1.5 mM CaCl2, 10 mM HEPES, and 6 mM D‐glucose, adjusted to pH 7.4 with NaOH (320‐330 mOsm). […] Whole‐cell currents were recorded at ‐60 mV, filtered at 100 Hz and sampled at 200 Hz with a MultiClamp 700B amplifier (Molecular Devices, LLC) and DigiData 1322A (Molecular Devices, LLC) digitizer. […]

[10] = molecular target: α6(P161T)β2γ2 GABAA receptor (Homo sapiens, UniProt P18507+P47870+Q16445, P180T); conditions: GABA Hill fit
Source text: as §1, with “All point mutations (listed in Figure 1C) were introduced using the QuikChange Lightening site‐directed mutagenesis kit (Agilent Technologies, Santa Clara, CA) according to the manufacturer's instructions and were confirmed by sequencing (Eurofins MWG Operon, Louisville, KY).” left out
as §5, §6

Cc1ncc2n1-c1ccc(Cl)cc1C(c1ccccc1F)=NC2 [midazolam]
therapeutically relevant range of midazolam measured from plasma ([1]; anesthetized state): 350 ng/mL and 966 nM | therapeutically relevant range of midazolam measured from plasma ([1]; postoperative drowsiness): 75 ng/mL and 207 nM

NCCCC(=O)O [GABA, γ‐aminobutyric acid]
Hill coefficient [2]: 1.180 ± 0.072 | Max Current (pA) [2]: -3424 ± 394.5 pA | Hill coefficient [3]: 1.444 ± 0.104 | Max Current (pA) [3]: -5007 ± 470.7 pA | Hill coefficient [4]: 1.494 ± 0.101 | Max Current (pA) [4]: -1765 ± 246.0 pA | Hill coefficient [5]: 1.255 ± 0.097 | Max Current (pA) [5]: -3175 ± 444.3 pA | Hill coefficient (α6β2γ2 GABAA receptor): 1.405 ± 0.074 | Max Current (pA) (α6β2γ2 GABAA receptor): -3276 ± 578.1 pA | Hill coefficient (α5β2γ2 GABAA receptor): 1.547 ± 0.123 | Max Current (pA) (α5β2γ2 GABAA receptor): -5115 ± 315.9 pA | Hill coefficient [6]: 1.796 | Max Current (pA) [6]: -1724 ± 286.1 pA | Hill coefficient (α2β2γ2 GABAA receptor): 1.581 ± 0.074 | Max Current (pA) (α2β2γ2 GABAA receptor): -3326 ± 356.7 pA | Hill coefficient [7]: 1.215 ± 0.079 | Max Current (pA) [7]: -3049 ± 378.6 pA | Hill coefficient [8]: 1.269 ± 0.084 | Max Current (pA) [8]: -6799 ± 919.2 pA | Max Current (pA) [9]: -2902 ± 349.5 pA | Max Current (pA) [10]: -3540 ± 290.2 pA
